This note sets out measurements from ChEMBL document CHEMBL1201862, “PubChem BioAssay data set” (2004).

Common to all, as to assay: NCI tumour cell line growth inhibition, 48 h
In experiment [1] the test system is OVCAR-8.
Experiment [2] relates to CAKI-1.
The test system of experiment [3] is XF498.
For experiment [4], the system named is SK-MEL-2.
Experiment [5] relates to LOX IMVI.
Experiment [6] deals with CCRF-CEM.
For experiment [7], the system named is HOP-62.
Experiment [8] has as its system NCI-H23.
For experiment [9], the system named is HOP-92.
Experiment [10] deals with IGROV-1.
In experiment [11] the test system is M19-MEL.
The subject of experiment [12] is NCI-H460.
Experiment [13] concerns SF-295.
Experiment [14] deals with M14.
Experiment [15] deals with TK-10.
For experiment [16], the system named is SR.

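1) Cells in 96-well plates. 2) Compound, 48 h, 5 concentrations. 3) Linear interpolation between surrounding doses. 4) Unreached endpoint = highest concentration. At the GI50, growth is halved.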 Calls of active or inactive are those of the source. No stated cut-off is given here; in the data, active = GI50 up to about 1.1 µM and inactive = higher.

Take `C/C(=C\C(C[C@](C)(O)C(O)CCC#C[Si](C)(C)C)S(=O)(=O)c1ccccc1)CC/C=C/CO[Si](C)(C)C(C)(C)C` (some centres not stated): the GI50 in experiment [1] was 17.2 µM (inactive); in experiment [2], 18.6 µM (inactive); in experiment [3], 13.2 µM (inactive); in experiment [4], 18 µM (inactive); in experiment [5] it was 13.2 µM (inactive); in [6] it was 10.6 µM (inactive). Also, the GI50 in experiment [7] was 21.4 µM (inactive); in experiment [8] it was 18.2 µM (inactive); in experiment [9], 11.9 µM (inactive); in [10], 20.8 µM (inactive); in [11], 17.2 µM (inactive); in experiment [12], 12.5 µM (inactive). Moreover, the GI50 in experiment [13] is 16.5 µM (inactive); in experiment [14], 17.9 µM (inactive); in [15], 22 µM (inactive).
For `O=C(CC1C(=O)Nc2ccccc2S1(=O)=O)Nc1cc(Cl)ccc1Cl` (configuration not stated), the GI50 in experiment [1] was 17.5 µM (inactive); in experiment [2], 16.1 µM (inactive); in experiment [3] it was 14.1 µM (inactive); in experiment [4] it was 14.9 µM (inactive); in experiment [5] it was 5.37 µM (inactive); in experiment [16], 7.16 µM (inactive). The GI50 in [6] was 17.8 µM (inactive); in experiment [8] it was 17.9 µM (inactive); in experiment [9], 14.2 µM (inactive); in experiment [10], 13.1 µM (inactive); in experiment [11], 16.2 µM (inactive); in experiment [12], 13.6 µM (inactive). Besides, the GI50 in experiment [13] is 17.5 µM (inactive); in [14] it was 14.3 µM (inactive); in experiment [15] it was 20.1 µM (inactive).
With `C=C(C)CC(C)(c1cc2ccccc2n1C)N1CCOCC1` (configuration not stated), the GI50 was 67.1 µM (inactive) in experiment [1]; 80.5 µM (inactive) in [2]; 50.6 µM (inactive) in experiment [3]; > 100 µM (inactive) in experiment [4]; > 100 µM (inactive) in experiment [5]; 69 µM (inactive) in [16]. Moreover, the GI50 was 44.5 µM (inactive) in experiment [6]; > 100 µM (inactive) in experiment [7]; 55.1 µM (inactive) in [8]; 14.8 µM (inactive) in experiment [9]; 75.7 µM (inactive) in [10]; > 100 µM (inactive) in experiment [11]. The GI50 is 60.8 µM (inactive) in [12], > 100 µM (inactive) in experiment [13], 70 µM (inactive) in experiment [14] and > 100 µM (inactive) in [15].
Consider `Cc1cc(C)c(-c2noc(-c3ccc(Cl)cc3)c2C2=NCCCN2)c(C)c1`, for which the GI50 was 26.7 µM (inactive) in experiment [1]; > 100 µM (inactive) in experiment [2]; 12.2 µM (inactive) in experiment [3]; 20.9 µM (inactive) in [4]; 16.2 µM (inactive) in experiment [5]; 26.5 µM (inactive) in experiment [16]. Moreover, the GI50 is 20.6 µM (inactive) in [6]; 21.8 µM (inactive) in experiment [7]; 17.9 µM (inactive) in [8]; 32.1 µM (inactive) in [10]; 36.1 µM (inactive) in [11]; 11.7 µM (inactive) in experiment [12]. Further, the GI50 in experiment [13] was 11.2 µM (inactive); in experiment [14], 2.47 µM (inactive).
For the molecule `O=C(/C=C/c1ccccc1)Oc1cccc2cccnc12`, the GI50 is 4.02 µM (inactive) in experiment [1]; 32 µM (inactive) in experiment [2]; 11.3 µM (inactive) in experiment [3]; 9.64 µM (inactive) in [5]; 1.57 µM (inactive) in experiment [16]; 3.18 µM (inactive) in experiment [6]. Moreover, the GI50 in experiment [7] is 21.2 µM (inactive); in experiment [8], 3.72 µM (inactive); in [9], 17.5 µM (inactive); in experiment [10], 11.2 µM (inactive); in experiment [11], 13.2 µM (inactive); in [12] it was 3.62 µM (inactive). Also, the GI50 in experiment [13] is 8.28 µM (inactive); in [14], 4.11 µM (inactive); in experiment [15], > 84.5 µM (inactive).
`[O-][n+]1c(-c2ccccc2)oc2ccccc21`: the GI50 in experiment [1] is 15.9 µM (inactive); in [2] it was > 41.1 µM (inactive); in [3] it was 35.6 µM (inactive); in experiment [4], 17.7 µM (inactive); in experiment [5] it was 3.07 µM (inactive); in [16] it was > 100 µM (inactive). In addition, the GI50 is > 62.1 µM (inactive) in [6]; 20.4 µM (inactive) in [7]; 11.3 µM (inactive) in experiment [8]; > 100 µM (inactive) in experiment [9]; 34.1 µM (inactive) in experiment [10]; 1.89 µM (inactive) in experiment [11]. Also, the GI50 in [12] was 4.98 µM (inactive); in [13], 14 µM (inactive); in experiment [14], 11 µM (inactive); in experiment [15], 26.6 µM (inactive).
Take `CC(=O)Nc1ccccc1S(=O)(=O)c1ccccc1`: the GI50 in experiment [1] was > 100 µM (inactive); in [2] it was > 100 µM (inactive); in experiment [3], 79.6 µM (inactive); in experiment [4], > 100 µM (inactive); in [5], > 100 µM (inactive); in experiment [6], > 100 µM (inactive). Moreover, the GI50 in [7] is > 100 µM (inactive); in [8], > 100 µM (inactive); in [9], 43.9 µM (inactive); in experiment [10], > 100 µM (inactive); in experiment [11] it was > 100 µM (inactive); in [12] it was > 100 µM (inactive). Besides, the GI50 in experiment [13], in experiment [14] and in experiment [15] was > 100 µM (inactive) in each case.
For the molecule `CC(C)(C)N/N=C(\C(=O)Nc1cccc(Cl)c1)C1C(=O)Nc2ccccc2[S+]1[O-]` (configuration not stated), the GI50 in experiment [1], in experiment [2], in experiment [3], in experiment [4], in experiment [5] and in experiment [16] was > 100 µM (inactive) in each case. Besides, the GI50 in experiment [6] is > 100 µM (inactive); in experiment [7], > 100 µM (inactive); in [8], > 100 µM (inactive); in [9], 74.8 µM (inactive); in experiment [10], > 100 µM (inactive); in [11] it was > 100 µM (inactive). Also, the GI50 in experiment [12], in [13], in experiment [14] and in [15] was > 100 µM (inactive) throughout.
For `Fc1ccc2c(c1)cc1ccc3cccc4ccc2c1c34`, the GI50 in [1], in [2], in experiment [3], in experiment [4], in experiment [5] and in experiment [16] was > 100 µM (inactive) in each case. Moreover, the GI50 in experiment [6], in [7], in experiment [8], in experiment [9], in experiment [10] and in experiment [11] was > 100 µM (inactive) each time. The GI50 in experiment [13], in [14] and in [15] was > 100 µM (inactive) in each case.
As for `c1cnc2c(c1)-n1cccc1C1(CCOCC1)NN2`, the GI50 in [1], in experiment [2], in experiment [3], in experiment [4], in experiment [16] and in experiment [6] was > 100 µM (inactive) throughout. For the same molecule, the GI50 in experiment [8], in [9], in experiment [10], in experiment [11], in experiment [12] and in [13] was > 100 µM (inactive) in each case. For the same molecule, the GI50 in experiment [14] and in experiment [15] was > 100 µM (inactive) each time.
For `CC1=Nn2c(nnc2-c2ccc(Cl)cc2)NC(C)(C)C1`, the GI50 in experiment [2], in [3], in experiment [4], in experiment [5], in experiment [6] and in experiment [7] was > 100 µM (inactive) throughout. Further, the GI50 in [8], in [9], in experiment [10], in [11], in experiment [12] and in experiment [13] was > 100 µM (inactive) in each case. Besides, the GI50 in experiment [14] and in [15] was > 100 µM (inactive) each time.
As to `O=c1n(-c2ccccc2)c(=O)n2n1C1C=CC2C2C(C1)C2(Cl)Cl` (configuration not stated), the GI50 in [1], in experiment [2], in experiment [3], in [4], in experiment [5] and in [16] was > 100 µM (inactive) throughout. For the same molecule, the GI50 in experiment [6], in experiment [7], in experiment [10], in experiment [11], in experiment [12] and in [13] was > 100 µM (inactive) throughout. Also, the GI50 in experiment [14] and in [15] was > 100 µM (inactive) in each case.
On to `CC(C)(C)c1cc(C(O)(C(F)(F)F)C(F)(F)F)c2c(c1)C(C(F)(F)F)(C(F)(F)F)OC(C)(C(C)(C)C)N2` (configuration not stated), for which the GI50 in experiment [1] is 4.9 µM (inactive); in [2], 3.04 µM (inactive); in experiment [3], 1.63 µM (inactive); in [4], 4.72 µM (inactive); in experiment [16] it was 2.82 µM (inactive); in [8] it was 2 µM (inactive). The GI50 was < 0.01 µM (active) in [9]; 4.78 µM (inactive) in experiment [10]; 3.05 µM (inactive) in experiment [11]; 2.48 µM (inactive) in experiment [12]; 4.73 µM (inactive) in experiment [13]; 0.653 µM (active) in [14]. Besides, in experiment [15], the GI50 was 3.27 µM (inactive).
